This note sets out measurements from patent US20250313555A1, “2-SUBSTITUTED THIAZOLE AND BENZOTHIAZOLE COMPOSITIONS AND METHODS AS DUX4 INHIBITORS” (ALTAY THERAPEUTICS, INC., priority 2022, published 2025).

Assay type in all cases: cell-based
The test system of data set [1] is HEK. Put plainly: Cell cytotoxicity 50 assay (CC50), HEK cells. A digest of the protocol:
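CC50 was fitted from total luminescence, measured 5 min after adding CellTiter-Glo reagent to HEK cells. The cells had been exposed for 72 h at 37 °C to medium serial dilutions prepared from a 10 mM drug solution.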

In data set [2] the test system is MB200 cells. Put plainly: Cell cytotoxicity 50 assay (CC50), MB200 cells, cell titer glo. The settings on record: 72 h. An outline of the steps:
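Luminescence from CellTiter-Glo after 72 h of compound exposure at 37 °C gave the CC50 for MB200 cells. These were plated at 10 k cells/well in triplicate in supplemented F10 medium and treated with a serial dilution series prepared from a 10 mM stock.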
For orientation: In ATP-based viability assays light output follows the ATP content of the culture.

The test system of data set [3] is MBD3L2 RNA. Put plainly: RNA isolation and qPCR to determine MBD3L2 RNA levels in FSHD cells. The settings on record: 48 hrs. A digest of the protocol: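 FSHD cells were treated one day after seeding with a DUX4 inhibitor (11 μM or 3.6 μM) for 48 h. Total RNA was DNase-treated and reverse-transcribed with random hexamers and M-MLV. MBD3L2 was quantified by SYBR Green qPCR in triplicate against EEF1A as the reference gene.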

Bounds are passed on as bounds.

In the case of `O=C(CCC1CCC(=O)N1)Nc1ccc(-c2nc3ccccc3s2)cc1` (stereo not drawn) [Compound 26], the CC50 in data set [1] was more than 10 µM; in data set [2], 1 to 10 µM. For the same compound, the “qPCR MBD3L2 Inhib at 11 µM” value in data set [3] is recorded as “YES”.

As usually defined, the CC50 is the concentration that lowers cell viability or growth by half. Higher therefore signals lower toxicity to the cells.
